Tests used:
[1] = tested on: non-responsive patients on standard therapy; experiment: Earlier trials of 96% pure EPA as add on to standard therapy in non-responsive patients; Bech score over time; type: in vivo, human; set-up: key to Bech score, Mean: Bech score = sum of 6 HDRS items; details: for Bech score, Mean: Add on therapy
From the text: (§1) The primary objective was to examine the effects of 96% pure EPA versus placebo on the Hamilton Depression Rating Scale (HDRS) in patients with a new or recurrent episode of depression. • 1. The Bech Scale (sum of 6 items as specified) was used as the instrument to measure efficacy across all subjects, i.e. the reduction of the Bech Score in the course of the trial, by comparing this change in the active groups with that in the placebo group. The Bech Scale consists of 6 items from the original HDRS: depression, guilt, work/interest, psychomotor retardation, anxiety psychic and general somatic symptoms (loss of energy, tiredness) and has been successfully used in several trials (Bech 2002 Acta Psychiatry Scand vol 106; p 252-264). • 2. For the differentiation of the subgroups of subjects, item 6 (early morning awakening), item 12 (loss of appetite) and item 16 (weight loss) were chosen from the HDRS, to identify subjects suffering from severe melancholic features. These items are also related to the definition of the melancholia specifier according the DSM-IV (American Psychiatric Association: 4th Edition, 2000). This specification was only done once, i.e. at the baseline visit (v1). Patients with a score of 2 in any of these 3 items were regarded as having severe melancholic items and therefore belonging the severe melancholic group, the others were regarded as not belonging to this group. The characteristics could change in the course of treatment, therefore it was important that only the condition at baseline was used for the definition. Results:
The following presents the Bech-Score over time in the severe melancholic groups, contrasted with those subjects showing no severe melancholic signs.

[2] = tested on: outpatients with a new episode of depression; experiment: Study of 96% pure EPA (ethyl ester) as monotherapy versus placebo in depression; Bech Scale and depression sub score of the HDRS; type: in vivo, human; set-up: key to Bech score, Mean: Bech score = sum of 6 HDRS items; key to Change of Bech score: reduction of Bech score (sum of 6 HDRS items) over trial; key to Depression subscore (item1, item2, item3), Mean / Depression subscore, Mean: sum of HDRS item 1, item 2 and item 3; details: for Bech score, Mean / Depression subscore (item1, item2, item3), Mean / Depression subscore, Mean: EPA any dose; for Depression subscore (item1, item2, item3), Mean: ITT
Protocol: as §1, with “A study was performed on outpatients with a new episode of depression using 96% pure EPA, as the ethyl ester, as a monotherapy for treatment of depression. The primary” for “The primary”, “definition. Results: An analysis of a less frequently used, but pre-specified sub score, i.e. the depression sub score, which is the sum of item 1 (depression), item 2 (guilt) and item 3 (suicidality), confirmed the findings.” for “definition. Results:”

Q: For `CC/C=C\C/C=C\C/C=C\C/C=C\C/C=C\CCCC(=O)O` [EPA, all cis (or all z) 5,8,11,14,17-eicosapentaenoic acid], which “Bech score, Mean” value ([1]; no severe melancholic signs, Bech l2 (week 2)) is on record?
A: 8.3

Q: And the “Bech score, Mean” value ([1]; no severe melancholic signs, Bech l4 (week 4))?
A: 7.3

Q: And the “Bech score, Mean” value ([1]; no severe melancholic signs, Bech l8 (week 8))?
A: 6.7

Q: What about the “Bech score, Mean” value ([1]; no severe melancholic signs, Bech l12 (week 12)) of the same molecule?
A: 6.7

Q: And the “Bech score, Mean” value ([1]; no severe melancholic signs, Bech v1 (baseline))?
A: 9.8

Q: And the “Bech score, Mean” value ([1]; with severe melancholic signs, Bech l2 (week 2))?
A: 8.1

Q: And the “Bech score, Mean” value ([1]; with severe melancholic signs, Bech l4 (week 4))?
A: 6.8

Q: What about the “Bech score, Mean” value ([1]; with severe melancholic signs, Bech l8 (week 8)) of the same molecule?
A: 5.9

Q: What about the “Bech score, Mean” value ([1]; with severe melancholic signs, Bech l12 (week 12)) of the same molecule?
A: 5.3

Q: And the “Bech score, Mean” value ([1]; with severe melancholic signs, Bech v1 (baseline))?
A: 9.0

Q: What about the “Improvement of Bech score” value ([1]; add on therapy, patients with severe melancholic features, 12 weeks, placebo 2.8 points, p<0.05) of the same molecule?
A: 3.7 points

Q: And the “Bech score outcome at 12 weeks compared with placebo (ANVOVA, baseline as covariate, last observation carried forward)” value ([1]; add on therapy, patients with severe melancholic signs)?
A: statistically superior

Q: And the “Change of Bech score compared with placebo” value ([2]; ITT group)?
A: no significant difference

Q: What about the “Change of Bech score” value ([2]; ITT group, all subjects, placebo changed by 3.9 points) of the same molecule?
A: 4.0 points

Q: What about the “Bech score, Mean” value ([2]; ITT group, Bech l2, after 2 weeks, last observation carried forward) of the same molecule?
A: 8.1

Q: And the “Bech score, Mean” value ([2]; ITT group, Bech l4, after 4 weeks, last observation carried forward)?
A: 6.6

Q: And the “Bech score, Mean” value ([2]; ITT group, Bech l6, after 6 weeks, last observation carried forward)?
A: 6.3

Q: What about the “Bech score, Mean” value ([2]; ITT group, Bech v1 = baseline week 1) of the same molecule?
A: 10.3

Q: And the “Depression subscore (item1, item2, item3), Mean” value ([2]; baseline)?
A: 4.3

Q: And the “Depression subscore (item1, item2, item3), Mean” value ([2]; outcome, LOCF)?
A: 2.3

Q: And the “Bech score, Mean” value ([2]; No severe melancholic signs, Bech l2 (week 2))?
A: 8.8

Q: What about the “Bech score, Mean” value ([2]; No severe melancholic signs, Bech l4 (week 4)) of the same molecule?
A: 6.3

Q: And the “Bech score, Mean” value ([2]; No severe melancholic signs, Bech l6 (week 6))?
A: 6.1

Q: And the “Bech score, Mean” value ([2]; No severe melancholic signs, Bech v1 (baseline))?
A: 10.2

Q: What about the “Depression subscore, Mean” value ([2]; No severe melancholic signs, baseline) of the same molecule?
A: 4.4

Q: And the “Depression subscore, Mean” value ([2]; No severe melancholic signs, outcome)?
A: 2.4

Q: And the “Bech score, Mean” value ([2]; With severe melancholic signs, Bech l2 (week 2))?
A: 7.3

Q: And the “Bech score, Mean” value ([2]; With severe melancholic signs, Bech l4 (week 4))?
A: 7.0

Q: And the “Bech score, Mean” value ([2]; With severe melancholic signs, Bech l6 (week 6))?
A: 6.5

Q: What about the “Bech score, Mean” value ([2]; With severe melancholic signs, Bech v1 (baseline)) of the same molecule?
A: 10.3

Q: And the “Depression subscore, Mean” value ([2]; With severe melancholic signs, baseline)?
A: 4.1

Q: What about the “Depression subscore, Mean” value ([2]; With severe melancholic signs, outcome) of the same molecule?
A: 2.3

Q: And the “Change of Bech score compared with placebo” value ([2]; non-severe melancholic group)?
A: not significantly different

Q: What about the “Change of Bech score” value ([2]; non-severe melancholic group, placebo change 5.0) of the same molecule?
A: 4.1

Q: And the “Depression sub score outcome compared with placebo (ANVOVA, baseline as covariate)” value ([2]; patients with severe melancholic signs)?
A: significant superiority

Q: What about the “Improvement of depression sub score” value ([2]; patients with severe melancholic signs, placebo 0.7 points, p<0.05) of the same molecule?
A: 1.8 points

Q: What about the “Improvement of Bech score” value ([2]; patients with severe melancholic signs, placebo 2.9 points, p<0.05) of the same molecule?
A: 3.8 points

Reference: patent US20060142390A1, “Treatment for severe melancholic depression” (priority 2004, published 2006)
